7 molecules from patent US20070117839A1, “Two cyclic cinnamide compound” (Eisai R&D Management Co., Ltd., priority 2005, published 2007) can be followed below.

As usually defined, the IC50 is the point on the concentration scale where inhibition reaches its midpoint.

The subject of the experiment is Aβ 42 Production. Description: Quantification of Aβ peptide in culture of neurons from rat fetus brain (Aβ ELISA). Particulars: Neuron, 72 h; rat primary neuronal culture (embryonic day 18 Wistar rat cerebral cortex), cultured three days after addition of the compound, Aβx-42 ELISA of the medium; read-out: Activity for reducing Aβ 42 Production IC50. Format: cell-based. The protocol: Quantification of Aβ Peptide in Culture of Neurons from Rat Fetus Brain
(1) Rat Primary Neuronal Culture
Primary neuronal cultures were prepared from the cerebral cortex of embryonic day 18 Wistar rats (Charles River Japan, Yokohama, Japan). Specifically, the embryos were aseptically removed from pregnant rats under ether anesthesia. The brain was isolated from the embryo and immersed in an ice-cold L-15 medium (Invitrogen Corp. Cat #11415-064, Carlsbad, Calif., USA, or SIGMA L1518, for example). The cerebral cortex was collected from the isolated brain under a stereoscopic microscope. The cerebral cortex fragments collected were enzymatically treated in an enzyme solution containing 0.25% trypsin (Invitrogen Corp. Cat #15050-065, Carlsbad, Calif., USA) and 0.01% DNase (Sigma D5025, St. Louis, Mo., USA) at 37° C. for 30 minutes to disperse the cells. Here, the enzymatic reaction was stopped by adding inactivated horse serum to the solution. The enzymatically treated solution was centrifuged at 1,500 rpm for five minutes to remove the supernatant. 5 to 10 mL of a medium was added to the resulting cell mass. Neurobasal medium (Invitrogen Corp. Cat #21103-049, Carlsbad, Calif., USA) supplemented with 2% B27 supplement (Invitrogen Corp. Cat #17504-044, Carlsbad, Calif., USA), 25 μM 2-mercaptoethanol (2-ME, WAKO Cat #139-06861, Osaka, Japan), 0.5 mM L-glutamine (Invitrogen Corp. Cat #25030-081, Carlsbad, Calif., USA), and Antibiotics-Antimycotics (Invitrogen Corp. Cat #15240-062, Carlsbad, Calif., USA) was used as the medium (Neurobasal/B27/2-ME). However, the above Neurobasal medium not supplemented with 2-ME (Neurobasal/B27) was used for the assay. The cells were redispersed by mild pipetting of the cell mass to which the medium was added. The cell dispersion was filtered through a 40-μm nylon mesh (Cell Strainer, Cat #35-2340, Becton Dickinson Labware, Franklin Lakes, N.J., USA) to remove the remaining cell mass, and thus a neuronal cell suspension was obtained. The neuronal cell suspension was diluted with the medium and then plated in a volume of 100 μl/well at an initial cell density of 5×10^5 cells/cm^2 in a 96-well polystyrene culture plate pre-coated with poly-L or D-lysine (Falcon Cat #35-3075, Becton Dickinson Labware, Franklin Lakes, N.J., USA coated with poly-L-lysine using the method shown below, or BIOCOAT™ cell environments Poly-D-lysine cell ware 96-well plate, Cat #35-6461, Becton Dickinson Labware, Franklin Lakes, N.J., USA). Poly-L-lysine coating was carried out as follows. 100 μg/ml of a poly-L-lysine (SIGMA P2636, St. Louis, Mo., USA) solution was aseptically prepared with a 0.15 M borate buffer (pH 8.5). 100 μl/well of the solution was added to the 96-well polystyrene culture plate and incubated at room temperature for one or more hours or at 4° C. overnight or longer. The coated 96-well polystyrene culture plate was washed with sterile water four or more times, and then dried or rinsed with, for example, sterile PBS or medium, and used for cell plating. The plated cells were cultured in the culture plate at 37° C. in 5% CO2-95% air for one day. Then, the total amount of the medium was replaced with a fresh Neurobasal/B27/2-ME medium, and then the cells were cultured for further three days.
The drug was added to the culture plate on Day 4 of culture as follows. The total amount of the medium was removed from the wells, and 180 μl/well of Neurobasal medium not containing 2-ME and containing 2% B-27 (Neurobasal/B27) was added thereto. A solution of the test compound in dimethyl sulfoxide (hereinafter abbreviated as DMSO) was diluted with Neurobasal/B27 at 10-fold of the final concentration. 20 μl/well of the dilution was added to and sufficiently mixed with the medium. The final DMSO concentration was 1% or less. Only DMSO was added to the control group.
The cells were cultured for three days after addition of the compound, and the total amount of the medium was collected. […]
A general note: ELISA stands for enzyme-linked immunosorbent assay.

In the case of `COc1cc(/C=C2\CC[C@H]3CC[C@@H](c4c(F)cc(F)cc4F)N3C2=O)ccc1-n1cnc(C)c1` [Example 89, (3S,8aS)-6-{1-[3-methoxy-4-(4-methyl-1H-imidazol-1-yl)phenyl]-(E)-methylidene}-3-(2,4,6-trifluorophenyl)hexahydroindolizin-5-one], the IC50 is 88 nM.

`COc1cc(/C=C2\CC[C@H]3CCC[C@@H](c4ccc(F)c(F)c4)N3C2=O)ccc1-n1cnc(C)c1` [Example 90, (6S,9aR)-6-(3,4-difluorophenyl)-3-{1-[3-methoxy-4-(4-methyl-1H-imidazol-1-yl)phenyl]-(E)-methylidene}octahydroquinolizin-4-one]: the concentration for half-maximal inhibition (IC50) was determined as 39 nM.

With `COc1cc(/C=C2\CC[C@H]3CCC[C@@H](c4cc(F)c(F)c(F)c4)N3C2=O)ccc1-n1cnc(C)c1` [Example 91, (6S,9aR)-6-(3,4,5-trifluorophenyl)-3-{1-[3-methoxy-4-(4-methyl-1H-imidazol-1-yl)phenyl]-(E)-methylidene}octahydroquinolizin-4-one], the half-inhibitory concentration (IC50) was 33 nM.

On to `COc1cc(/C=C2\CC[C@H]3CCC[C@@H](c4ccc(Cl)cc4)N3C2=O)ccc1-n1cnc(C)c1` [Example 92, (6S,9aR)-6-(4-chlorophenyl)-3-{1-[3-methoxy-4-(4-methyl-1H-imidazol-1-yl)phenyl]-(E)-methylidene}octahydroquinolizin-4-one], for which the IC50 was 40 nM.

`COc1cc(/C=C2\CC[C@H]3COC[C@@H](c4ccc(F)c(F)c4)N3C2=O)ccc1-n1cnc(C)c1` [Example 95, (4R,9aS)-4-(3,4-difluorophenyl)-7-{1-[3-methoxy-4-(4-methyl-1H-imidazol-1-yl)phenyl]-(E)-methylidene}hexahydropyrido[2,1-c][1,4]oxazin-6-one]: the half-inhibitory concentration (IC50) was 87 nM.

For the molecule `COc1cc(/C=C2\CC[C@H]3COC[C@@H](c4ccc(Cl)cc4)N3C2=O)ccc1-n1cnc(C)c1` [Example 96, (4R,9aS)-4-(4-chlorophenyl)-7-{1-[3-methoxy-4-(4-methyl-1H-imidazol-1-yl)phenyl]-(E)-methylidene}hexahydropyrido[2,1-c][1,4]oxazin-6-one], the half-inhibitory concentration (IC50) is 65 nM.

For the molecule `COc1cc(/C=C2\CC[C@H]3CN(C)C[C@@H](c4cc(F)c(F)c(F)c4)N3C2=O)ccc1-n1cnc(C)c1` [Example 110, (4R,9aS)-7-{1-[3-methoxy-4-(4-methyl-1H-imidazol-1-yl)phenyl]-(E)-methylidene}-2-methyl-4-(3,4,5-trifluorophenyl)octahydropyrido[1,2-a]pyrazin-6-one], the concentration for half-maximal inhibition (IC50) was 29 nM.
